Values of other authors in article PMC9851200, “Multiparameter phenotypic screening for endogenous TFEB and TFE3 translocation identifies novel chemical series modulating lysosome function” (Autophagy, 2022).

What was measured:
Parameters in all cases: method as in original PKIS2 published data
[1] = molecular target: kinases (KINOMEscan panel) (Homo sapiens, UniProt P10721); details: Published KINOMEscan, ref original PKIS2 published data, cited from earlier work
[2] = molecular target: T1, kinases (KINOMEscan panel) (Homo sapiens, UniProt Q7L7X3); details: kinase TAOK1; Published KINOMEscan; ref original PKIS2 published data; cited from earlier work
T1 sequence (Q7L7X3 1-1001): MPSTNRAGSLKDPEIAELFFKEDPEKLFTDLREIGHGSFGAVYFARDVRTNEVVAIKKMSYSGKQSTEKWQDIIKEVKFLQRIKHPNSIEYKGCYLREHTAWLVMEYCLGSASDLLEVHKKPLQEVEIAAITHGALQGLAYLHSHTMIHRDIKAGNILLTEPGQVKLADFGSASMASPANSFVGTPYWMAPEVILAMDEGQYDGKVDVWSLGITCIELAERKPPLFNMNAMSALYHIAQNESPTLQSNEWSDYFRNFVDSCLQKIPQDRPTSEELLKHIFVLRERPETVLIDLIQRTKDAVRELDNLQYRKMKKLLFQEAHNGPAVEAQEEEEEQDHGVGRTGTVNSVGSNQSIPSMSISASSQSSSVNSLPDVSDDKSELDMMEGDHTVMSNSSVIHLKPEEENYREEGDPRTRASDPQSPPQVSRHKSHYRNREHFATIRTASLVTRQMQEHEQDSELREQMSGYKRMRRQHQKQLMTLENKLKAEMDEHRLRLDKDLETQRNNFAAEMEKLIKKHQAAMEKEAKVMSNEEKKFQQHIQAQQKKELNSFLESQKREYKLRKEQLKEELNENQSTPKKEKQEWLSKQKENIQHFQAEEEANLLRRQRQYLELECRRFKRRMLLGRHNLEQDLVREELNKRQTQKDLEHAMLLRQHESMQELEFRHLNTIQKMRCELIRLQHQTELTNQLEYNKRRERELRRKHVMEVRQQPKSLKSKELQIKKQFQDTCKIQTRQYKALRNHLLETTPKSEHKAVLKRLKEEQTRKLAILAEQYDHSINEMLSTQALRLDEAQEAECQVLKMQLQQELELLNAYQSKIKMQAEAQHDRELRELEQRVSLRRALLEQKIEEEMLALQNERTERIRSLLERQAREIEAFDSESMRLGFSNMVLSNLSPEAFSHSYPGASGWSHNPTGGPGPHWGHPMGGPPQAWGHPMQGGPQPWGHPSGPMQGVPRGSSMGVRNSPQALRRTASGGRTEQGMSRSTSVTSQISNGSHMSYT

[3] = molecular target: T2, kinases (KINOMEscan panel) (Homo sapiens, UniProt Q92772); details: CDKL2; Published KINOMEscan; ref original PKIS2 published data; cited from earlier work
T2 sequence (Q92772 1-493): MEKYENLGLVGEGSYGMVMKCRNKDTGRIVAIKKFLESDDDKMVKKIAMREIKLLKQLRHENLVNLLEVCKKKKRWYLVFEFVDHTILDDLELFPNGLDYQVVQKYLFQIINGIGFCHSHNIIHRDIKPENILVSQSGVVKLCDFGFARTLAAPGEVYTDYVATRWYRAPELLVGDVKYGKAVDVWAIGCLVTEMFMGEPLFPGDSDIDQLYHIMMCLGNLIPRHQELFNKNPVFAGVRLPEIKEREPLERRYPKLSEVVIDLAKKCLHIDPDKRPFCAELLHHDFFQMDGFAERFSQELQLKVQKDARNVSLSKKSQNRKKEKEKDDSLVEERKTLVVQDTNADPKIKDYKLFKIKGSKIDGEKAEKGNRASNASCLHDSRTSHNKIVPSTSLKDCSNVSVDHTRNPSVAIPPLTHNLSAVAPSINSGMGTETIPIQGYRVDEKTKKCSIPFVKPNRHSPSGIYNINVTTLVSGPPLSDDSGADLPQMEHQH

[4] = molecular target: T3, kinases (KINOMEscan panel) (Homo sapiens, UniProt Q9UKI8); details: kinase TLK1; Published KINOMEscan; ref original PKIS2 published data; cited from earlier work
T3 sequence (Q9UKI8 1-766): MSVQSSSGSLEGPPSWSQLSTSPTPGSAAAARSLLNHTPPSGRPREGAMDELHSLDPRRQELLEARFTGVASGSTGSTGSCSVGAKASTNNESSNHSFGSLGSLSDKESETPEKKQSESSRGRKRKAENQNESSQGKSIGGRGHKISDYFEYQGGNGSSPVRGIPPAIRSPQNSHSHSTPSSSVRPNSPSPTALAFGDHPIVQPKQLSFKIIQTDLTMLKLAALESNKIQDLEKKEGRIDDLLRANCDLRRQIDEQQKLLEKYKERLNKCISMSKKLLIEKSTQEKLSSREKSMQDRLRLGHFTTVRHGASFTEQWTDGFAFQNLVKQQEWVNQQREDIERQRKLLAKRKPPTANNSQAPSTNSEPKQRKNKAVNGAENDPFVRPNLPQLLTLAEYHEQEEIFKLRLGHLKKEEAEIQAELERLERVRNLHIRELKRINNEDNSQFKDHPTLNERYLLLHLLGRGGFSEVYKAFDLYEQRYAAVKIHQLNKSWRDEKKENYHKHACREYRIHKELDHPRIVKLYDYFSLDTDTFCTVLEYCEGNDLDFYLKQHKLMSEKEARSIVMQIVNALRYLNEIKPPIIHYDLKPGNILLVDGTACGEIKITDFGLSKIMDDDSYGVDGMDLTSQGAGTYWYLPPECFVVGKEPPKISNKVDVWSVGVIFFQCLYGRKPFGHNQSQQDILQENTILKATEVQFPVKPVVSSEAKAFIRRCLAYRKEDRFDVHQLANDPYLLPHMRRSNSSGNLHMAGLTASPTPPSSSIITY

kinases (KINOMEscan panel) (Homo sapiens, UniProt P10721), sequence (P10721 26-976): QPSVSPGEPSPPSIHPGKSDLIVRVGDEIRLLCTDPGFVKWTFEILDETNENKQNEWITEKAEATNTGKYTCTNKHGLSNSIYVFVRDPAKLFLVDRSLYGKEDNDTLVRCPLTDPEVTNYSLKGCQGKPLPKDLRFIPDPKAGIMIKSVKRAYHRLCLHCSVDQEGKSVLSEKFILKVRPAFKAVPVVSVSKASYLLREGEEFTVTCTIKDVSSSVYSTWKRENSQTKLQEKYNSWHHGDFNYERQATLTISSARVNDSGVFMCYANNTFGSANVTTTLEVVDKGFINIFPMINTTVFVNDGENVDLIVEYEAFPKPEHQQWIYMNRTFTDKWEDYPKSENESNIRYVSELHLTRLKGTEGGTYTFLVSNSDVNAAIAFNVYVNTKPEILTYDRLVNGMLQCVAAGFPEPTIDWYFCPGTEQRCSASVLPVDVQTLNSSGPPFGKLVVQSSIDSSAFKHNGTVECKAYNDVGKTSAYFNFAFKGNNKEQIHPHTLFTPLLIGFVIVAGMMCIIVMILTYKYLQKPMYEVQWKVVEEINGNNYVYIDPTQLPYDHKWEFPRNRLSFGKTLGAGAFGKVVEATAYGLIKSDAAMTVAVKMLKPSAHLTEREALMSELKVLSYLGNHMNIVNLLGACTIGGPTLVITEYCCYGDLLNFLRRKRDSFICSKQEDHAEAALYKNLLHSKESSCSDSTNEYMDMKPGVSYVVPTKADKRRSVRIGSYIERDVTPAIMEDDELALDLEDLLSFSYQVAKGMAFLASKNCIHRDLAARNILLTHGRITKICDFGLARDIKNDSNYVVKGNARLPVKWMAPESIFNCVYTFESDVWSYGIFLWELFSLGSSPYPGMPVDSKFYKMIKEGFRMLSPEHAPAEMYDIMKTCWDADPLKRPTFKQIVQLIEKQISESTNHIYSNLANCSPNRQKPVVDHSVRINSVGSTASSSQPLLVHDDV

Cc1cccc(-c2nc(Nc3ccncc3)c3ccccc3n2)n1 [NK215]
KINOMEscan KIT-autoinhibited ([1]; KIT-autoinhibited): 0 | KINOMEscan KIT ([1]; KIT): 10 | KINOMEscan TAOK1 [2]: 0 | KINOMEscan CDKL2 [3]: 10 | KINOMEscan TLK1 [4]: 0
